Results published in patent US20250235486A1, “Method of Producing Insulin-Producing Cells” (Monash University, priority 2022, published 2025).

Experiments:
[1] = test system: human exocrine (acinar and ductal) cells; assay: qRT-PCR gene expression in human exocrine (acinar and ductal) cells from a non-diabetic donor; format: cell-based; details: 48 hours: GSK126 10 μM, CPI-1205 5 μM, ursolic acid 5 μM, GSK343 5 μM, EPZ-6438 5 μM
Procedure: (§1) Exocrine cells from a non-diabetic human and a marmoset were cultured and assayed in Miami/CMRL medium. The human exocrine cells were sourced from the Islet Transplant Unit of St Vincent's Institute for Medical Research. The marmoset exocrine cells were sourced from the Australian Regenerative Medicine Institute (ARMI), Monash University. Miami media is based on CMRL 1066 media (Connaught Medical Research Lab) supplemented with: Insulin, Transferrin & Selenium (ITS), human serum, Vitamin E, sodium pyruvate, zinc and HEPES. Pharmacological inhibition of EZH2 and gene expression analysis were performed as described in Example 1.

[2] = test system: H3K27me3 or H3K9/14ac content at the promoters of INS-IGF2, NGN3 and PDX1 in human pancreatic ductal epithelial cells; assay: Quantitative PCR chromatin immunoprecipitation (q-PCR ChIP) after 2- and 7-day stimulation; format: cell-based; details: 7 days (FIG. 12c)
Procedure: Approximately 5×10^6 cells were fixed in 1% formaldehyde for 10 minutes, with a further 10-minute incubation in 0.125M glycine to quench the cross-linking reaction. The fixed cell pellet was lysed following resuspension and homogenization in sodium dodecyl (lauryl) sulphate (SOS) lysis buffer (1% SOS, 10 mM EDTA, 50 mM Tris-HCl pH 8.1) with a protease inhibitor cocktail (Roche Diagnostics GmBH, Mannheim, Germany) included. Samples were incubated on ice for 5 minutes following which sonication was performed to shear chromatin between 200-600 bp. Sonicated chromatin was resuspended in ChIP Dilution Buffer (0.01% SOS, 1.1% Triton X-100, 1.2 mM EDTA, 16.7 mM Tris-HCl pH 8.0 and 167 mM NaCl). 20 μl of DynabeadsR Protein A (Invitrogen, Carlsbad, CA, USA) was added to each sample and pre-cleared. Overnight incubation at 4° C. with H3K27me3 or H3K9/14ac antibody was used for immunoprecipitation of chromatin, as previously described. Immunoprecipitates were collected by magnetic isolation and washed sequentially with low salt and high salt buffers. Immunoprecipitated DNA was then eluted from solution with 0.1 M NaHCO3 containing 1% SIDS. Protein-DNA cross-links were reversed by incubation of samples in Proteinase K (Sigma, St. Louis, MO, USA) for 2 hours at 62° C. DNA was purified using a Qiagen MinElute column (Qiagen Inc., Valencia, CA, USA). H3K27me3 or H3K9/14ac content at the promoters of the INS-IGF2, NGN3 and PDX1 genes were assessed by qPCR using primers designed from the integrative ENCODE resource.

[3] = biological target: T1, EZH2 (Homo sapiens, UniProt Q15910); details: assay of methylation activity as described in the cited paper for each compound; cited from earlier work
T1 construct: Flag
T1 sequence (Q15910 whole entry): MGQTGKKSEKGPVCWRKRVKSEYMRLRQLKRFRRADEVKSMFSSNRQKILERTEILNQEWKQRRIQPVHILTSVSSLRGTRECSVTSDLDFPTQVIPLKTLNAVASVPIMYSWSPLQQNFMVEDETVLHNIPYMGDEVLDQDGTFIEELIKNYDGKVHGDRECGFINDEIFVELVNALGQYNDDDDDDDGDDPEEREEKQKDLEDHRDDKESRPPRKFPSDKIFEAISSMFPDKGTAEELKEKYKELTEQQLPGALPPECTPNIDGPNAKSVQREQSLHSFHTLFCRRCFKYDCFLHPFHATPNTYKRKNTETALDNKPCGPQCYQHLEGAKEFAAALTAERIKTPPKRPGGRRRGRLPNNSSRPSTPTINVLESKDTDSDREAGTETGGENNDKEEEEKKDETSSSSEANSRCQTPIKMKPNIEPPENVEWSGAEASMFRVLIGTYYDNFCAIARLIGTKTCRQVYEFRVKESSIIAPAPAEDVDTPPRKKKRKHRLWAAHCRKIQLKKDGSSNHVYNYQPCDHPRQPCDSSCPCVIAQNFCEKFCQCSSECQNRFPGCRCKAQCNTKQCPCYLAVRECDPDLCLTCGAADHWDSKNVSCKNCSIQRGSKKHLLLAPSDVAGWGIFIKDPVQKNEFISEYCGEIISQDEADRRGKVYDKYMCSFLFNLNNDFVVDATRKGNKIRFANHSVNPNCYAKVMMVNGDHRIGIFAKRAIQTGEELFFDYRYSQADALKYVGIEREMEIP
T1 sequence (O75530 whole entry partner): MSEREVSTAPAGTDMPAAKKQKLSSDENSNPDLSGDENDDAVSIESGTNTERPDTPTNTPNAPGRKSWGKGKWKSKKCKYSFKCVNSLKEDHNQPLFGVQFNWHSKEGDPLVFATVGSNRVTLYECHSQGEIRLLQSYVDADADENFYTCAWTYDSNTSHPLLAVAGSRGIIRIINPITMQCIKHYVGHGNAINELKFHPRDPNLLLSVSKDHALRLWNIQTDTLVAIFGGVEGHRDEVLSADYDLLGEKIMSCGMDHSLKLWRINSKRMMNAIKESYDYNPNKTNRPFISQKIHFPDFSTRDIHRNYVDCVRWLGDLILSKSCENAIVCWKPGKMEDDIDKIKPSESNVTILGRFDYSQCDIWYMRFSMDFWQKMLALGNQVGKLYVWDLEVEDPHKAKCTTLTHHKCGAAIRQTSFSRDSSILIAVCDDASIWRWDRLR
T1 sequence (Q15022 whole entry partner): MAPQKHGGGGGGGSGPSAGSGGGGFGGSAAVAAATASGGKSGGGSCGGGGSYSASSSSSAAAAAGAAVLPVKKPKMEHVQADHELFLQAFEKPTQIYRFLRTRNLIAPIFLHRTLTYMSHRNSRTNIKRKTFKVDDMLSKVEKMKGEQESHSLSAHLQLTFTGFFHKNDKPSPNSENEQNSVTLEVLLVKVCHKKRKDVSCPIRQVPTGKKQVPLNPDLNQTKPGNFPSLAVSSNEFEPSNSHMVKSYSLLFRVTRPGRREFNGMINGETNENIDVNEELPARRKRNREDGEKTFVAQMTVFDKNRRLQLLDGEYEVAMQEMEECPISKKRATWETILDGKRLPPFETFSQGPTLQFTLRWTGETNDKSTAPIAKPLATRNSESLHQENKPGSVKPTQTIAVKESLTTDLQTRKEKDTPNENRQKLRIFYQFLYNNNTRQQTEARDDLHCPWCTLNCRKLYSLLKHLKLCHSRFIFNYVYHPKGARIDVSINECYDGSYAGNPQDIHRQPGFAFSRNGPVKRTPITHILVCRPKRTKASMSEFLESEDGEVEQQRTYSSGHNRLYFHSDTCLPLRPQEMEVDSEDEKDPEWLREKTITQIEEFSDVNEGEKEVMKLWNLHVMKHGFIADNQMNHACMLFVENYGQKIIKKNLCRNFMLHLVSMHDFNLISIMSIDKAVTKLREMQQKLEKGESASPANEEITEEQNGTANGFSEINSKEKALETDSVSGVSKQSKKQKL
T1 sequence (Q6ZN18 whole entry partner): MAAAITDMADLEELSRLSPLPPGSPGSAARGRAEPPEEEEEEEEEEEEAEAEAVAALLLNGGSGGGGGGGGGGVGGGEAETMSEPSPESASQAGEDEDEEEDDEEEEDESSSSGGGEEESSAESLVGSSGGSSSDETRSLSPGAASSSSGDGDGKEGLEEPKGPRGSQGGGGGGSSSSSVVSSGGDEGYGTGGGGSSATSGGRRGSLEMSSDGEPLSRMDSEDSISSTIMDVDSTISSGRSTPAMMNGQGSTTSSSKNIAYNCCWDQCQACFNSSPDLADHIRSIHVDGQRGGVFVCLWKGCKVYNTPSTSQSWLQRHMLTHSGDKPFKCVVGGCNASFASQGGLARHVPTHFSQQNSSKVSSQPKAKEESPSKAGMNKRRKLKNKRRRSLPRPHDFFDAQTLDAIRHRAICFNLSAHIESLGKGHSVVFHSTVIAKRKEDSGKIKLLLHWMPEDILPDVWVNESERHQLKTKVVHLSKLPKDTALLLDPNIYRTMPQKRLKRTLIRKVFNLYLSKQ
T1 sequence (Q09028 whole entry partner): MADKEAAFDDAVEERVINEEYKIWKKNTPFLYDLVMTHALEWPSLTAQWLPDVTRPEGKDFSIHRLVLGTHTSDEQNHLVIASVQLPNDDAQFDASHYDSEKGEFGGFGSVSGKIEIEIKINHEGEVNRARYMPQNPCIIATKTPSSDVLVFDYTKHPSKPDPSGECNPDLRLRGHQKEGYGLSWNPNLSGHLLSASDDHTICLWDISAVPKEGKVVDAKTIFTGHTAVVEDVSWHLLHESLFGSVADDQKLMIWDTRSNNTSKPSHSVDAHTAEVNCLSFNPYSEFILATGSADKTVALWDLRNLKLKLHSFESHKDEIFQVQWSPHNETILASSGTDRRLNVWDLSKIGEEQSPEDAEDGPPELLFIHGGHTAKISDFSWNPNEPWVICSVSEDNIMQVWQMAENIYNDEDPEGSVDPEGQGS

[4] = test system: Human pancreatic ductal epithelial cells; assay: qRT-PCR after 2- and 7-day EZH2 inhibitor stimulation of human pancreatic ductal epithelial cells; format: cell-based; details: GSK-126 10 μM, Triptolide 20 nM
Procedure: Human pancreatic ductal epithelial cells were purchased from AddexBio and cultured according to the recommended protocols. Cells were cultured in complete Keratinocyte Serum-Free Media (supplemented with human recombinant EGF, Bovine Pituitary Extract and Antibiotic-Antimycotic [Gibco]. All cell cultures were grown and maintained in a 37° C., 5% C02 environment using a tissue culture incubator. Once cells reached 70-80% confluency, passaging was performed using 0.05% Trypsin EDTA (Sigma). […] Vehicle control was DMSO. Cells were treated over 2 main timepoints, with harvests occurring following 2, and 7 days. For the 2-day time point, cells were seeded and left to adhere in plates for 24 hours. Treatment was initiated with the first dose made up in complete K-SFM. The second dose was delivered 24 hours later following a media change. For the longer period of 7 days, cells were initially seeded in 10 cm plates, with doses delivered on alternate days following the initial period of 24 hours. […] Ct values of experimental genes were normalized to housekeeping gene [MUT]. Fold change of mRNA abundance was calculated by normalizing drug treated values to vehicular controls. […] RNA was isolated using the RNeasy Kit according to the manufacturer's directions. Following measurement of RNA concentration using a QIAxpert System, 1 μg of RNA was used for cDNA synthesis by a high-capacity cDNA Reverse Transcription Kit (Applied Biosystems). The resulting cDNA reaction mix was diluted 1:6 to make up the final template cDNA used subsequently. […] Ct values of experimental genes were normalized to housekeeping gene [MUT]. Fold change of mRNA abundance was calculated by normalizing drug treated values to vehicular controls.

[5] = test system: Human pancreatic ductal epithelial cells; assay: Glucose stimulated insulin secretion assay (ELISA); format: cell-based
Procedure: 5×10^5 cells were seeded in 12-well plates and allowed to adhere for 24 hours. […] Next, cells were cultured in 28 mM (High) glucose Krebs Buffer solution and incubated for 1 hour to obtain the glucose stimulated insulin secretion. Supernatant was collected and Ultrasensitive Insulin ELISA (Mercodia) was used to determine the concentration of insulin according to manufacturer's instructions. Fold change of insulin secreted by cells were calculated by adjusting to cells stimulated with EZH2 inhibitors for insulin concentrations compared to control.

[6] = test system: Human immortalised ductal cell line; assay: qRT-PCR gene expression in human immortalised ductal cell line; format: cell-based; details: ursolic acid 1, 2.5 or 5 μM; GSK126 5, 10 or 20 μM
Procedure: Human immortalised ductal cell line (Catalog #: T0018001, Addexbio) was cultured and assayed in Keratinocyte SFM (serum-free medium) (Catalog number 17005042, ThermoFisher Scientific, USA). Pharmacological inhibition of EZH2 and gene expression analysis were performed as described in Example 1.

[7] = test system: marmoset exocrine (acinar and ductal) cells; assay: qRT-PCR gene expression in marmoset exocrine (acinar and ductal) cells; format: cell-based; details: 48 hours: GSK126 10 μM, ursolic acid 5 μM
Procedure: as §1

COc1cc(C)[nH]c(=O)c1CNC(=O)c1c(C)n([C@H](C)C2CCN(CC(F)(F)F)CC2)c2ccccc12 [CPI-1205, N-[(1,2-Dihydro-4-methoxy-6-methyl-2-oxo-3-pyridinyl)methyl]-2-methyl-1-[(1R)-1-[1-(2,2,2-trifluoroethyl)-4-piperidinyl]ethyl]-1H-indole-3-carboxamide]
mRNA expression of Insulin, Pdx1 and Ngn3 [1]: stimulated expression of one, two or all of Insulin, Pdx1 and Ngn3

CCN(c1cc(-c2ccc(CN3CCOCC3)cc2)cc(C(=O)NCc2c(C)cc(C)[nH]c2=O)c1C)C1CCOCC1 [EPZ-6438, N-[(1,2-Dihydro-4,6-dimethyl-2-oxo-3-pyridinyl)methyl]-5-[ethyl(tetrahydro-2H-pyran-4-yl)amino]-4-methyl-4′-(4-morpholinylmethyl)[1,1′-biphenyl]-3-carboxamide]
mRNA expression of Insulin, Pdx1 and Ngn3 [1]: stimulated expression of one, two or all of Insulin, Pdx1 and Ngn3 | H3K27me3 content of PDX1 [2]: reduced

CCCc1cc(C)[nH]c(=O)c1CNC(=O)c1cc(-c2ccnc(N3CCN(C)CC3)c2)cc2c1cnn2C(C)C [GSK343, N-[(1,2-Dihydro-6-methyl-2-oxo-4-propyl-3-pyridinyl)methyl]-1-(1-methylethyl)-6-[2-(4-methyl-1-piperazinyl)-4-pyridinyl]-1H-indazole-4-carboxamide]
IC50 [3]: 4 nM | mRNA expression of Insulin, Pdx1 and Ngn3 [1]: stimulated expression of one, two or all of Insulin, Pdx1 and Ngn3

CC(C)[C@]12O[C@H]1[C@@H]1O[C@]13[C@]1(O[C@H]1C[C@H]1C4=C(CC[C@@]13C)C(=O)OC4)[C@@H]2O [Triptolide, (3bS,4aS,5aS,6R,6aR,7aS, 7bS,8aS,8bS)-3b,4,4a,6,6a,7a,7b,8b,9,10-Decahydro-6-hydroxy-8b-methyl-6a-(1-methylethyl)trisoxireno[4b,5: 6,7:8a,9]phenanthro[1,2-c]furan-1(3H)-one]
MAFA mRNA levels ([4]; 2-day point): increased in a statistically significant manner | CK19 expression ([4]; 2 days, EPZ6438 1 μM): statistically significant decreases | NGN3 mRNA levels ([4]; 2 days, EPZ6438 1 μM): significantly elevated | insulin transcripts, mature mRNA (INS) ([4]; 2 days, EPZ6438 1 μM): elevations | insulin transcripts, unprocessed heterogenous nuclear form (INS hnRNA) ([4]; 2 days, EPZ6438 1 μM): elevations | NGN3 mRNA levels ([4]; 7 days, EPZ6438 1 μM): Further increases | insulin transcripts, mature mRNA (INS) ([4]; 7 days, EPZ6438 1 μM): even further increases | insulin transcripts, unprocessed heterogenous nuclear form (INS hnRNA) ([4]; 7 days, EPZ6438 1 μM): even further increases | insulin concentration after incubation in high-glucose media (28 mM glucose, 1 hour) ([5]; 2-day stimulation (FIG. 13d), GSK126 10 μM, EPZ6438 1 μM, Triptolide 20 nM, not observed in DMSO control): significant elevations | Release of insulin (glucose stimulated) ([5]; 7 days stimulation (FIG. 13e)): maintained

C[C@H]1[C@H](C)CC[C@]2(C(=O)O)CC[C@]3(C)C(=CC[C@@H]4[C@@]5(C)CC[C@H](O)C(C)(C)[C@@H]5CC[C@]43C)[C@H]12 [Ursolic acid, 3β-Hydroxyurs-12-en-28-oic acid]
Insulin mRNA expression [6]: stimulated expression | Ngn3 mRNA expression [6]: stimulated expression | Pdx1 mRNA expression [6]: stimulated expression | Insulin mRNA expression [7]: stimulated expression | Pdx1 mRNA expression [7]: stimulated expression | mRNA expression of Insulin, Pdx1 and Ngn3 [1]: stimulated expression of one, two or all of Insulin, Pdx1 and Ngn3
